No end group written: not given here.
How the values were obtained:
E. coli ATCC 25922 [1] = test: Flow cytometric viability assay with membrane potential sensitive dye DiBAC4(3); format: cell-based; conditions: 20 µg/ml peptide, 1.5x10^6 bacteria/ml in Schaedler Broth 1:6, 37°C, 90 minutes, then DiBAC4(3) 10 minutes, 10000 events
Procedure: (§1) The clinical isolate H. pylori KaE1 and the reference strains H. pylori DSM 9691, DSM 10242 and DSM 21031 were tested for susceptibility towards defensins, LL37 and elafin (amino acid sequences Table S1). The strain H. pylori DSM 10242 is positive for the virulence factors VacA and CagA. As control strain for antimicrobial activity served the sensitive E. coli ATCC 25922.
(§2) Bacterial viability after incubation with antimicrobial peptides or biopsy extracts was analyzed with the membrane potential sensitive dye DiBAC4(3) (bis-(1,3-dibutylbarbituric acid) trimethine oxonol) (Invitrogen, Carlsbad, CA, USA) as described previously. Briefly, 1.5x10^6 mid-logarithmic-phase bacteria/ml of H. pylori or E. coli in Schaedler Broth 1:6 were incubated with 20 µg/ml HBD1-4 (Peptide Institute, Osaka, Japan), elafin (Proteo Biotech, Kiel, Germany for FACS analysis and RDA and elafin from Peptide Institute, Osaka for CFU determination), with LL37 (Innovagen, Lund, Sweden) or with 10 µg total protein of antrum biopsy extracts at 37°C. After 90 minutes 1 µg/ml DiBAC4(3) was added to the suspensions and further incubated for 10 minutes. Then, the suspensions were centrifuged with 4500 x g for 10 minutes, pellets resuspended in 300 µl PBS and bacterial fluorescence was analyzed by a FACSCalibur^TM (BD, Sparks, USA), using Cell Quest software (BD, Sparks, USA). In each sample 10000 bacterial events were analyzed for green fluorescence and the antimicrobial activity was determined as percentage of depolarized, fluorescent bacteria. Inhibition of bacterial growth was tested by plating aliquots on Columbia blood agar and incubating at 37 C° for 2 days in a microaerophilic atmosphere with CampyGen (Oxoid, Hampshire, UK). Then colony forming units (CFU) were counted.

[2] = test system: H. pylori KaE1, DSM 9691, DSM 10242 and DSM 21031; test: Flow cytometric viability assay with DiBAC4(3), four H. pylori strains; format: cell-based; conditions: all 4 H. pylori strains; 20 µg/ml peptide, Schaedler Broth 1:6, 37°C, 90 minutes, DiBAC4(3)
Procedure: as §1
(§3) H. pylori strains were cultured on Columbia blood agar at 37 C° for 2 days in a microaerophilic atmosphere with CampyGen (Oxoid, Hampshire, UK). Subsequently the bacteria were suspended in Schaedler Broth (BD, Sparks, USA) diluted 1:6 with aqua dest. for incubation with antimicrobial peptides.
as §2

H. pylori DMS 9691 = test: Plating on Columbia blood agar with CFU counting; format: cell-based; conditions: peptide 20 µg/ml, means of two independent experiments, control 8.85 x 10^5
Procedure: as §3, §2

H. pylori DSM 10242 [3] = test: Plating on Columbia blood agar with CFU counting; format: cell-based; conditions: peptide 20 µg/ml, means of two independent experiments, control 6.10 x 10^5
Procedure: as §3, §2

H. pylori DSM 21031 = test: Plating on Columbia blood agar with CFU counting; format: cell-based; conditions: peptide 20 µg/ml, means of two independent experiments, control 7.45 x 10^5
Procedure: as §3, §2

H. pylori KaE = test: Plating on Columbia blood agar with CFU counting; format: cell-based; conditions: peptide 20 µg/ml, means of two independent experiments, control 1.42 x 10^6
Procedure: as §3, §2

[4] = test system: H. pylori KaE1, DSM 9691, DSM 10242 and DSM 21031; test: Radial diffusion assay, four H. pylori strains; format: cell-based; conditions: all four Helicobacter strains; 20 µg peptide per well, 3 days, 37 °C, microaerophilic
Procedure: Additionally to determine inhibition of bacterial growth we performed radial diffusion assays with a modified protocol of the procedure from Robert Lehrer et al.. Briefly, H. pylori was grown on Columbia blood agar (BD, Sparks, USA), suspended in Brain Heart Infusion diluted 1:5 with aqua dest. and plated on an agar containing 20% brain heart infusion with 5% fetal calf serum. Wells with 3 mm diameter were punched into the agar and peptides were applied equivalent to the flow cytometric assay in a concentration of 20 µg per well. The agar plates were incubated for 3 days at 37 °C in a microaerophilic atmosphere with CampyGen.

H. pylori KaE1 [5] = test: Transmission electron microscopy of peptide-treated bacteria; format: cell-based; conditions: H. pylori KaE1, 1.5x10^8 bacteria, 200 µg peptide/ml, 2 hours
Procedure: For electron microscopy 1.5x10^8 bacteria were incubated with 200 µg peptide/ml for 2 hours. Subsequently bacteria were fixed with Karnovsky solution, embedded in agarose, coagulated, cut in blocks and fixed once more in Karnovsky. After post fixation and embedding in glycid ether the specimen were cut with an ultra microtome. Sections of 30 nm were rinsed on copper grids and investigated with a Zeiss LIBRA 120 transmission electron microscope.

H. pylori [6] = conditions: ref 21 George et al., cited from earlier work
Description: Previously, Hase et al. had tested two H. pylori strains against the antimicrobials HBD1, HBD2 and LL37 and […], one strain tested was resistant to HBD1, while the second strain was sensitive. […] In the study by Hase et al. […] Th ...

H. pylori DSM 10242 [7] = test: Flow cytometric viability assay with DiBAC4(3); format: cell-based; conditions: 20 µg/ml peptide, 37°C, 90 minutes
Procedure: as §1, §3
(§4) Bacterial viability after incubation with antimicrobial peptides or biopsy extracts was analyzed with the membrane potential sensitive dye DiBAC4(3) (bis-(1,3-dibutylbarbituric acid) trimethine oxonol) (Invitrogen, Carlsbad, CA, USA) as described previously. […] Then, the suspensions were centrifuged with 4500 x g for 10 minutes, pellets resuspended in 300 µl PBS and bacterial fluorescence was analyzed by a FACSCalibur^TM (BD, Sparks, USA), using Cell Quest software (BD, Sparks, USA). In each sample 10000 bacterial events were analyzed for green fluorescence and the antimicrobial activity was determined as percentage of depolarized, fluorescent bacteria. […] Then colony forming units (CFU) were counted.

H. pylori KaE1 [8] = test: Flow cytometric viability assay with DiBAC4(3); format: cell-based; conditions: 20 µg/ml peptide, 37°C, 90 minutes
Procedure: as §1, §3, §4

E. coli ATCC 25922 [9] = test: Binding of antimicrobial peptides to bacterial cells (flow cytometry, Streptavidin-PE); conditions: 20 µg/ml biotinylated LL37 or 20 µg/ml HBD2 with biotinylated HBD2-antibody, 30 minutes
Procedure: (§5) To investigate whether HBD2 and LL37 bind to the bacterial cell membrane, we incubated E. coli or H. pylori in Schaedler Broth 1:6 with 20 µg/ml biotinylated LL37 (Innovagen, Lund, Sweden) or 20 µg/ml HBD2 (Peptide Institute, Osaka, Japan) for 30 minutes. After centrifugation a biotinylated HBD2-antibody was added to the in PBS resuspended pellet of the HBD2 samples (Peprotech, Hamburg, Germany). Following washing with PBS, binding of biotinylated LL37 or of the HBD2-antibody was detected with Streptavidin-PE (BD Biosciences, Heidelberg, Germany). Suspensions incubated with HBD2 antibody and Streptavidin served as control. Fluorescence 2 of 10 000 events was measured with the FACSCalibur.

H. pylori [10] = test: as above; conditions: 20 µg/ml biotinylated LL37 or 20 µg/ml HBD2 with biotinylated HBD2-antibody, 30 minutes
Procedure: as §5

Substance: Gly - Ile - Ile - Asn - Thr - Leu - Gln - Lys - Tyr - Tyr - Cys - Arg - Val - Arg - Gly - Gly - Arg - Cys - Ala - Val - Leu - Ser - Cys - Leu - Pro - Lys - Glu - Glu - Gln - Ile - Gly - Lys - Cys - Ser - Thr - Arg - Gly - Arg - Lys - Cys - Cys - Arg - Arg - Lys - Lys (disulfide) [HBD3, recombinant inducible defensin HBD3 (DEFB103A), Peptide Institute, Osaka]
- depolarized bacteria (E. coli ATCC 25922 [1]): 90%
- depolarized bacteria [2]: 34-78%
- Colony forming units (H. pylori DMS 9691): 0.20 x 10^5 CFU/ml
- Colony forming units (H. pylori DSM 10242 [3]): 1.14 x 10^5 CFU/ml
- Colony forming units (H. pylori DSM 21031): 1.55 x 10^5 CFU/ml
- Colony forming units (H. pylori KaE): 0.08 x 10^6 CFU/ml
- zones of inhibition in radial diffusion assay [4]: pronounced zones
- disintegration of bacterial cells (electron microscopy) (H. pylori KaE1 [5]): more pronounced disintegration
- effectiveness against H. pylori among defensins (H. pylori [6]): most effective against H. pylori

Substance: ELDRICGYGTARCRKKCRSQEYRIGRCPNTYACCLRK (disulfide (positions not given here)) [HBD4, recombinant defensin HBD4 (DEFB104A), Peptide Institute, Osaka]
- depolarized bacteria (E. coli ATCC 25922 [1]): 43%
- depolarization level (H. pylori DSM 10242 [7]): 12%
- depolarization level (H. pylori KaE1 [8]): 8%
- Colony forming units (H. pylori DMS 9691): 8.25 x 10^5 CFU/ml
- Colony forming units (H. pylori DSM 10242 [3]): 4.95 x 10^5 CFU/ml
- Colony forming units (H. pylori DSM 21031): 6.90 x 10^5 CFU/ml
- Colony forming units (H. pylori KaE): 1.26 x 10^6 CFU/ml
- zones of inhibition in radial diffusion assay [4]: no zones of inhibition

Substance: Leu - Leu - Gly - Asp - Phe - Phe - Arg - Lys - Ser - Lys - Glu - Lys - Ile - Gly - Lys - Glu - Phe - Lys - Arg - Ile - Val - Gln - Arg - Ile - Lys - Asp - Phe - Leu - Arg - Asn - Leu - Val - Pro - Arg - Thr - Glu - Ser [LL37, amphipathic α-helical cathelicidin LL37 (CAMP), Innovagen, Lund]
- depolarized bacteria (E. coli ATCC 25922 [1]): 87%
- depolarized bacteria [2]: 62-85%
- Colony forming units (H. pylori DMS 9691): 0.35 x 10^5 CFU/ml
- Colony forming units (H. pylori DSM 10242 [3]): 0.15 x 10^5 CFU/ml
- Colony forming units (H. pylori DSM 21031): 0.41 x 10^5 CFU/ml
- Colony forming units (H. pylori KaE): 0.09 x 10^6 CFU/ml
- zones of inhibition in radial diffusion assay [4]: pronounced zones
- binding to the bacterial surface (E. coli ATCC 25922 [9]): accumulated on the surface
- binding to the bacterial surface (H. pylori [10]): accumulated on the surface

Substance: Asp - His - Tyr - Asn - Cys - Val - Ser - Ser - Gly - Gly - Gln - Cys - Leu - Tyr - Ser - Ala - Cys - Pro - Ile - Phe - Thr - Lys - Ile - Gln - Gly - Thr - Cys - Tyr - Arg - Gly - Lys - Ala - Lys - Cys - Cys - Lys (disulfide) [HBD1, recombinant constitutive defensin HBD1 (gene name DEFB1), Peptide Institute, Osaka]
- depolarized bacteria (E. coli ATCC 25922 [1]): 37%
- depolarized bacteria [2]: less than 5%
- Colony forming units (H. pylori DMS 9691): 8.61 x 10^5 CFU/ml
- Colony forming units (H. pylori DSM 10242 [3]): 6.85 x 10^5 CFU/ml
- Colony forming units (H. pylori DSM 21031): 7.15 x 10^5 CFU/ml
- Colony forming units (H. pylori KaE): 1.32 x 10^6 CFU/ml
- zones of inhibition in radial diffusion assay [4]: no zones of inhibition
- eradication (CFU) (H. pylori [6]; 10^-5 M recombinant HBD1 in hypotonic buffer): absolute eradication
- reduction of CFU (H. pylori [6]; 10^-7 M recombinant HBD1 in hypotonic buffer): about 50%
